Read-outs that look alike come from different tables or passages of the source.
Columns and labels:
[1] = tested on: acetic acid-induced writhing; experiment: Writhing test (acetic acid); type: in vivo, rat;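 on Analgesic activity: ++ means marked effect and + means moderate effect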
Experimental: (§1) The analgesic activity of the compounds of formula (I) was tested in the following manner: […]
The compounds studied and saline were administered p.o. to rats. Forty-five minutes later, 1 ml of 1% acetic acid was administered i.p. The number of writhes was recorded in the following 25 minute period (Koster et al: Fed. Proc. 18:412, 1959).

[2] = tested on: carrageenan-induced oedema; experiment: Inhibition of carrageenan-induced oedema; type: in vivo, rat; conditions: for inhibition in vivo at 100 mg/kg: po, read-out: inhibition carrageenan-induced oedema (%);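 on Anti-inflammatory activity: ++ means marked effect and + means moderate effect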
Experimental: The anti-inflammatory activity of the compounds of the invention was determined by inhibition of the carrageenan induced oedema in rats by the compounds examined (Winter C. A. et al., Proc. Soc. Exp. Biol. Med. 111:544, 1962).

[3] = tested on: male mice on a 55° C. hot plate; experiment: Hot plate test; type: in vivo, mouse (male); conditions: for Analgesic activity: 1.5 mg/kg; for change in vivo at 1.5 mg/kg: Mus musculus, ip, 0.5 h, 1.5 mg/kg i.p., read-out: increase in HP-time (%)
Experimental: as §1
Test compounds or saline were given i.p. to male mice. Thirty minutes thereafter, the time for which the mice remained on a 55° C. plate was recorded. The results are expressed as compared to saline.

[4] = tested on: anesthetized Sprague-Dawley rats (blood pressure, pulse frequency); experiment: Blood pressure and pulse frequency in anesthetized normal-weight Sprague-Dawley rats (i.v.); type: in vivo, rat (Sprague-Dawley); conditions: Rattus norvegicus, iv
Experimental: The anti-hypertensive properties of the imidazole derivatives of the present invention have been determined according to the following procedure. Sprague-Dawley rats of normal weight were first anesthetized with urethane. After this, the femoral artery was connected by way of a polyethylene tube with a blood pressure transducer. The test substance was then injected into the femoral vein and the blood pressure and the pulse frequency were registered with a recorder. The minimum doses producing a significant change were found, i.e. ± at least 20% in the case of blood pressure, and ± at least 3% in the case of pulse frequency.

[5] = read-out: Blood Pressure Minimum Dose having a significant lowering effect
[6] = read-out: Pulse frequency Minimum Dose having a significant lowering effect

Row | SMILES | Analgesic activity ([1]; 100 mg/kg) | W-number ([1]; 100 mg/kg p.o.) | Anti-inflammatory activity ([2]; 100 mg/kg p.o. in the rat) | inhibition in vivo at 100 mg/kg ([2]; Rattus norvegicus) [%] | inhibition in vivo at 100 mg/kg ([2]; 100 mg/kg p.o. in the rat) [%] | other results
1 | Cc1ccc(C(O)c2c[nH]cn2)c(C)c1 (stereo not drawn) [4-[α-(2',4'-Dimethylphenyl)]hydroxymethylimidazole] | + | 1.3 |  |  |  | 
2 | Cc1ccc(C(O)c2c[nH]cn2)cc1 (stereo not drawn) [4-[α-(4'-Methylphenyl)]hydroxymethylimidazole] | ++ | 0.6 | + | 38 |  | 
3 | COc1ccc(C(O)c2c[nH]cn2)cc1 (stereo not drawn) [4-[α-(4'-Methoxyphenyl)]hydroxymethylimidazole] | + | 1.9 |  |  |  | 
4 | Cc1ccccc1C(O)c1nc[nH]c1C (stereo not drawn) [5-Methyl-4-[α-(2'-methylphenyl)]hydroxymethylimidazole] |  |  | + |  | 67 | 
5 | Cc1ccc(C(=O)c2c[nH]cn2)cc1 [4-(4'-methylbenzoyl)imidazole, 4-(4'-Methylbenzoyl)imidazole] |  |  | + |  | 40 | 
6 | COc1cccc(C(O)c2c[nH]cn2)c1 (stereo not drawn) [4-[α-(3'-Methoxyphenyl)]hydroxymethylimidazole] | ++ | 0 | ++ | 71 |  | 
7 | CCc1ccccc1C(O)c1c[nH]cn1 (stereo not drawn) [4-[α-(2'-Ethylphenyl)]hydroxymethylimidazole] | ++ | 0 | ++ | 73 |  | Analgesic activity [3]: +; change in vivo at 1.5 mg/kg [3]: 300%
8 | COC(c1c[nH]cn1)c1c(C)cccc1C (stereo not drawn) [4-[α-(2',6'-Dimethylphenyl)]methoxymethylimidazole] | + | 13 | + | 40 |  | 
9 | Cc1cccc(C)c1C(O)c1nc[nH]c1C (stereo not drawn) [5-Methyl-4-[α-(2',6'-dimethylphenyl)]hydroxymethylimidazole] | + | 13 | + |  | 52 | 
10 | Cc1cccc(C(O)c2c[nH]cn2)c1 (stereo not drawn) [4-[α-(3'-Methylphenyl)]hydroxymethylimidazole] | ++ | 0 | + | 34 |  | 
11 | Cc1ccccc1C(=O)c1nc[nH]c1C [5-methyl-4-(2'-methylbenzoyl)imidazole, 5-Methyl-4-(2'-methylbenzoyl)imidazole] |  |  | + |  | 44 | 
12 | CCc1cccc(CC)c1C(O)c1c[nH]cn1 (stereo not drawn) [4-[α-(2',6'-diethylphenyl)]hydroxymethylimidazole] |  |  |  |  |  | minimal effective dose [4, 5]: 0.3 to 1 mg/kg; minimal effective dose [4, 6]: 0.3 to 1 mg/kg
13 | CCc1cccc(CC)c1Cc1c[nH]cn1 [4-(2',6'-diethylbenzyl)imidazole] |  |  |  |  |  | minimal effective dose [4, 5]: 0.03 to 0.2 mg/kg; minimal effective dose [4, 6]: 0.03 mg/kg
14 | Cc1cccc(C(O)c2c[nH]cn2)c1C (stereo not drawn) [4-[α-(2',3'-Dimethylphenyl)]hydroxymethylimidazole] | ++ | 0 | + | 52 |  | Analgesic activity [3]: ++; change in vivo at 1.5 mg/kg [3]: 400%
15 | Cc1ccccc1Cc1nc[nH]c1C [5-methyl-4-(2'-methylbenzyl)imidazole, 5-Methyl-4-(2'-methylbenzyl)imidazole] |  |  | + |  | 44 | Analgesic activity ([1]; 30 mg/kg): +; W-number ([1]; 30 mg/kg p.o.): 43
16 | COc1ccccc1C(O)c1c[nH]cn1 (stereo not drawn) [4-[α-(2'-Methoxyphenyl)]hydroxymethylimidazole] | + | 2.5 | ++ | 69 |  | minimal effective dose [4, 5]: 0.3 to 1 mg/kg; minimal effective dose [4, 6]: 1 mg/kg
